Test results from patent USRE48267E1, “Variants of C-type natriuretic peptide” (priority 2009, dated 2020).
Where a SMILES comes first, the peptide text is derived from it. Bridges are numbered along the chain shown (N, C = ends). The star is where a group is joined. MeO(CH2CH2O)23CH2CH2CO = COCCOCCOCCOCCOCCOCCOCCOCCOCCOCCOCCOCCOCCOCCOCCOCCOCCOCCOCCOCCOCCOCCOCCOCCC(=O)*

How the values were obtained:
Recombinant human NEP = Recombinant human NEP (Homo sapiens, UniProt P08473); assay: in vitro NEP cleavage assay (disappearance of non-cleaved CNP variant)
Chain of Recombinant human NEP (P08473 whole entry): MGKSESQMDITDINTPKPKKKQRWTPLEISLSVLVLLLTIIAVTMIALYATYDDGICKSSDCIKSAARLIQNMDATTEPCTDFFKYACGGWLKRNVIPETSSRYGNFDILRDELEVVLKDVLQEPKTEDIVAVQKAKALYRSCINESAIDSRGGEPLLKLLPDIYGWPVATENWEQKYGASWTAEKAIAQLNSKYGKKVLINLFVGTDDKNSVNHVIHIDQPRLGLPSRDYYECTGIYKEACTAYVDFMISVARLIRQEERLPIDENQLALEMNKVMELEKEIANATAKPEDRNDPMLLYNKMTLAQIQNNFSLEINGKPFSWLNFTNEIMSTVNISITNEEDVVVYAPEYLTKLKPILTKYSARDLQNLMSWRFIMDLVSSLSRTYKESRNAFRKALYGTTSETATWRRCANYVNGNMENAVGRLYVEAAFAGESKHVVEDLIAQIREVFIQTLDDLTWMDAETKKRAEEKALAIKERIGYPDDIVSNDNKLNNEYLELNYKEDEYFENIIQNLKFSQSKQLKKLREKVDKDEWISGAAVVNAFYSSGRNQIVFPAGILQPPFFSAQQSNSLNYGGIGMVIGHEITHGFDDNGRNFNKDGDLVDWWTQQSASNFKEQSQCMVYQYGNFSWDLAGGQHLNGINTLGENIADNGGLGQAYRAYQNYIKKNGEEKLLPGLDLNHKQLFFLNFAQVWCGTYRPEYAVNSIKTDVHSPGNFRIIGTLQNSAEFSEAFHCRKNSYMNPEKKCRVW
In short: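 Recombinant human NEP (1 ug/mL final) incubated with 100 uM CNP variant in 0.1 M Tris, pH 7, at 37° C for various times, then quenched with EDTA (10 mM final) and heat. Samples reduced and analysed by HPLC and mass spectrometry. Half-life derived from loss of intact variant over time.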

FGFR3^ach mice = assay: efficacy in mouse model of mild achondroplasia; type: in vivo; conditions: 200 nmol/kg s.c. once daily for 5 weeks
Excerpt: To assess the biodistribution of CNP37 in the bone growth plate in vivo and the in vivo effects of CNP37 on the growth plate (including total growth plate thickness, hypertrophic zone thickness, and cellularity of proliferating zone), bone samples were obtained from FGFR3^ach mice treated with vehicle or CNP37 as described above. For biodistribution and in vivo effects studies, tibias were fixed and stored in 70% ethanol. For immunohistochemistry, the samples were decalcified in 5% formic acid for 2 days, dehydrated and embedded in paraffin. Bones were sectioned at 5 um (microns), which were then deparaffinized, rehydrated, and used for CNP immunohistochemistry as described above. For cellular image analysis, bones were sectioned at 5 (microns), and then deparaffinized, rehydrated, and stained with Alcian Blue for 30 minutes (pH 2.5; MasterTech) and Hematoxylin &
Eosin for 30 seconds. Stained sections were visualized and photographed by brightfield microscopy. Thicknesses of the growth plate and the proliferating and hypertrophic zones were measured using ImageJ software.
The efficacy of CNP variants in enhancing growth and correcting achondroplasia was tested in a mouse model of mild achondroplasia, using a strain of transgenic mice expressing a human FGFR-3 gene having a G380R mutation (FGFR3^ach) (Wang et al., Proc. Natl. Acad. Sci. USA, 96(8): 4455-4460 (1999); Naski et al., Development USA, 125: 4977-4988 (1998); U.S. Pat. Nos. 6,265,632 and 6,136,040).
At 3 weeks of age, FGFR3^ach mice and their wild-type littermates were anesthetized to have lateral whole-body X-ray images taken by Faxitron, and randomized by body weight into the following treatment groups (n=8/group): (1) wild-type/vehicle, (2) FGFR3^ach/vehicle, (3) FGFR3^ach/CNP37, and (4) FGFR3^ach/PEO24-GANRR-CNP22(K4R) (SEQ ID NO: 36). The mice received once daily subcutaneous (s.c.) administration of designated test article (vehicle or 200 nmol/kg CNP variant) for 5 weeks. Satellite groups (n=3) were used to confirm exposure of each test article following a single subcutaneous administration on Day 1. Wild-type male FVB mice that received daily s.c. injection of vehicle for 5 weeks were used as a control for normal growth.
X-ray measurements at baseline and at the end of the study were performed to determine change in the head length, area of the skull, and the external auditory meatus (EAM, the ear canal running from the outer ear to the middle ear). Body weight and tail length were measured at least once weekly, using a digital caliper to measure tail length, and body (nasoanal) length was measured after 5 weeks of treatment. Bone (tibia, femur, ulna and humerus) lengths were measured using a digital caliper at necropsy.
On Day 37, all mice were sacrificed by terminal anesthesia and whole-animal photographs and X-ray images by Faxitron were taken. Left and right tibia, femur, humerus, and ulna were collected and measured using a digital caliper. The left portions of each bone were processed for histology, and the right portions were snap-frozen for archival. Samples obtained from the bones were used to evaluate the effects of NP variants on endochondral bone growth.

CC[C@H](C)[C@@H]1NC(=O)[C@H](CCCNC(=N)N)NC(=O)[C@H](CC(=O)O)NC(=O)[C@H](CC(C)C)NC(=O)[C@H](CCCCN)NC(=O)[C@H](CC(C)C)NC(=O)CNC(=O)[C@H](Cc2ccccc2)NC(=O)[C@@H](NC(=O)CNC(=O)[C@H](CCCNC(=N)N)NC(=O)[C@H](CO)NC(=O)[C@H](CC(C)C)NC(=O)CNC(=O)[C@H](CCCNC(=N)N)NC(=O)[C@H](CCCNC(=N)N)NC(=O)[C@H](CC(N)=O)NC(=O)[C@H](C)NC(=O)CNC(=O)CCOCCOCCOCCOCCOCCOCCOCCOCCOCCOCCOCCOCCOCCOCCOCCOCCOCCOCCOCCOCCOCCOCCOCCOC)CSSC[C@@H](C(=O)O)NC(=O)CNC(=O)[C@H](CC(C)C)NC(=O)CNC(=O)[C@H](CO)NC(=O)[C@H](CCSC)NC(=O)[C@H](CO)NC(=O)CNC1=O [PEO24-GANRR-CNP22(K4R)] ({MeO(CH2CH2O)23CH2CH2CO}-GANRRGLSRGCFGLKLDRIGSMSGLGC-OH; disulfide 11-27)
resistance to NEP cleavage (in words) (Recombinant human NEP): completely resistant to NEP cleavage over the assay period of 160 minutes | Femur length, relative to vehicle-treated FGFR3^ach mice = 100% (FGFR3^ach mice): 100% | Humerus length, relative to vehicle-treated FGFR3^ach mice = 100% (FGFR3^ach mice): 100% | Naso-Anal length, relative to vehicle-treated FGFR3^ach mice = 100% (FGFR3^ach mice): 99% | Tail length, relative to vehicle-treated FGFR3^ach mice = 100% (FGFR3^ach mice): 100% | Tibia length, relative to vehicle-treated FGFR3^ach mice = 100% (FGFR3^ach mice): 102% | Ulna length, relative to vehicle-treated FGFR3^ach mice = 100% (FGFR3^ach mice): 101%
